The results in this text go back to publication PMC10451668, “Natural Acetogenins, Chatenaytrienins-1, -2, -3 and -4, Mitochondrial Potential Uncouplers and Autophagy Inducers—Promising Anticancer Agents” (Antioxidants, 2023).

What is called CC50 is the concentration that lowers cell viability or growth by half.

What all share (format): cell-based, human
For assay [1], the system named is Jurkat. Description: Cytotoxicity assay (7-AAD viability, flow cytometry). Particulars: Homo sapiens, ± standard error of the mean, 95% CI in parenthesis. The text has this:
(§1) Cells, including Jurkat E6.1 (human leukemic T cell lymphoblasts, catalogue no. 88042803), K562 (human chronic myelogenous leukemia cells, catalogue no. 89121407), U937 (human histiocytic lymphoma cells, catalogue no. 85011440), HL60 (human promyelocytic leukemia cells, catalog no. 98070106), HEK293 (human embryonic kidney cells with adenovirus, catalog no. 85120602), and human lung fibroblasts Ce (catalogue no. 90011883), were purchased from the European Collection of Authenticated Cell Cultures (UK Health Security Agency) and cultured according to standard protocols using sterile techniques. […] Cells were maintained in RPMI 1640 (Jurkat, K562, U937, and HL60) and DME M (fibroblast and HEK293) (Gibco) supplemented with […] glutamine, 10% FBS (Sigma), and 100 units/mL penicillin-streptomycin (Sigma). All types of cells were grown under an atmosphere of 5% CO2 at 37 °C. The cells were subcultured at 2–3-day intervals. Cells were then seeded in 24-well plates at 5 × 10^4 cells per well and incubated overnight. Jurkat, K562, U937, HL60, HEK293, and fibroblast cells were subcultured at 2-day intervals with a seeding density of 1 × 10^5 cells per well in 24-well plates in RPMI with 10% FBS.
(§2) Viability (live/dead) assessment was performed by staining cells with 7-AAD (7-aminoactinomycin D; Biolegend). After treatment, cells were harvested, washed 1–2 times with phosphate-buffered saline (PBS), and centrifuged at 400× g for 5 min. Cell pellets were resuspended in 200 µL of flow cytometry staining buffer (PBS without Ca^2+ and Mg^2+, 2.5% FBS) and stained with […] of 7-AAD staining solution for 15 min at room temperature in the dark. Samples were assessed using the NovoCyte Penteon Flow Cytometer System (Agilent, 5301 Stevens Creek Blvd., Santa Clara, CA, USA). Detection of 7-AAD emission was collected through a 675/30 nm filter in the FL4 channel.
(In flow cytometry, cells or beads pass a laser one at a time.)

Assay [2] relates to K562. The description is as above. To be noted: Homo sapiens, ± standard error of the mean, 95% CI in parenthesis.
Source text: as §1, §2

Assay [3] relates to HL60. The assay is described as above. To be noted: Homo sapiens, HL-60, ± standard error of the mean, 95% CI in parenthesis.
Source text: as §1, §2

Assay [4] deals with U937. Described as above. To be noted: Homo sapiens, U-937, ± standard error of the mean, 95% CI in parenthesis.
Source text: as §1, §2

Assay [5] has as its system Jurkat cell lysates. Briefly: Multiplex analysis of signaling, genotoxicity and early apoptosis proteins (MILLIPLEX MAP, Luminex). On the procedure: Multiplex analysis was performed according to a previously published method. MILLIPLEX®MAP technology is used to determine the total protein or phosphorylated protein levels of various biological analytes, such as kinases or signaling proteins, including CREB, ERK/MAP, p70 S6, p21, p38, PI3K/AKT/mTOR, JNK (A), p53, MDM2, Bcl-2/Bax, STAT3 and STAT5, Nf-kB, Caspase 3-8-9, JNK, ATM, Chk1, Chk2, and H2AX, in cell lysates using the Luminex® system ((MILLIPLEX Multi-Pathway Magnetic Bead 9-Plex—Cell Signaling Multiplex Assay kit, Merk, Germany). This MILLIPLEX®MAP technology provides an alternative to Western blotting and immunoprecipitation and has several important advantages, such as more accurate measurement of small amounts of protein and the elimination of analyte loss during sample preparation. The multiplex immunoassay (MILLIPLEX 48-680MAG; Merck Millipore, Germany) was performed in Millipore 96-well plates to detect changes in concentrations of phosphorylated and unphosphorylated proteins p53, MDM2, p21, p38, PI3K/AKT/mTOR, Bcl-2/Bax, STAT3 and STAT5, Nf-kB, Caspase 3 -8-9, CREB, ERK/MAP, p70 S6, JNK, ATM, Chk1, Chk2, and H2AX in Jurkat cell lysates.
The levels of phosphorylated and non-phosphorylated proteins were analyzed using MILLIPLEX® map technology to study the analytes in the same sample within a fairly short time. Various deviations in protein concentration due to external factors or detection errors that could affect the results of the experiment were thereby reduced to zero.
The expression of p53, MDM2, p21, p38, PI3K/AKT/mTOR, Bcl-2/Bax, STAT3 and STAT5, Nf-kB, Caspase 3-8-9, CREB, ERK/MAP, p70 S6, JNK, ATM, Chk1, Chk2, and H2AX proteins in lysate samples of Jurkat tumor cells were studied using Luminex technology with the MILLIPLEX® MAP 9-Plex Multi-Pathway 9-plex Magnetic Bead Kit. This bead-based assay involved color-coded fluorescent particles pre-coated with specific antibodies targeting 9 major kinases in signaling pathways.

Assay [6] relates to Jurkat tumor cell line. Briefly: Assessment of cytochrome c loss (FlowCellect Cytochrome c Kit). To be noted: compound at CC50, incubation 3 h, anti-cytochrome c-FITC. On the procedure:
Quantification of cytochrome c release from mitochondria in apoptotic cells was presented to detect the mitochondrial pathway of apoptosis in cells using flow cytometry with the FlowCellect™ Cytochrome c Kit (FCCH100110). For this, cells were treated with FITC-conjugated antibodies against cytochrome c and control anti-IgG1-FITC, together with the use of an optimized fixation procedure, permeabilization, and blocking buffer (Luminex®, USA). […] Jurkat cells were incubated for 4 h with the synthesized substances at a concentration corresponding to their 24-h CC50 in a culture plate and assessed using the NovoCyte Penteon Flow Cytometer System (Agilent, 5301 Stevens Creek Blvd., Santa Clara, CA, USA). The obtained data were processed using NovoExpress® software (ACEA).

Assay [7] has as its system Jurkat cells. Description: Oxidative stress and early apoptosis (MitoSOX Red and annexin V, MitoStress Kit). To be noted: compound at CC50, 4 h. The text has this: Changes in the mitochondrial membrane potential (ΔΨ) in Jurkat cells induced by treatment with the synthesized compounds were detected using MitoSOX Red, a positively charged probe that accumulates rapidly in mitochondria and as such can be used to detect superoxide/ROS production within mitochondria using fluorometry, microscopy, or flow cytometry. Live cells induced a low level of MitoSOX Red fluorescence, while cells with scattered mitochondrial membrane potential caused much higher MitoSOX Red fluorescence. Annexin V is a dye commonly used to detect early signs of apoptosis. […] Thus, using two different dyes, MitoSOX Red and annexin V (CF488A), in the FlowCellect™ MitoStress Kit (FCCH100109), we analyzed the mitochondrial membrane potential dissipation and associated apoptosis in Jurkat cells in response to the synthesized chatenaytrienins.
Therefore, simultaneous detection of mitochondrial superoxide generation (detected by MitoSOX Red membrane-penetrating dye) and expression of phosphatidylserine on the cell surface of apoptotic cells (assessed by binding of annexin V) in the same cell sample provides an accurate evaluation of the ability of the test compound to initiate oxidative stress in cell culture and induce apoptosis.

Turning to `CCCCCCCCCC/C=C\CC/C=C\CC/C=C\CCCCCCCCCCC1=C[C@H](C)OC1=O` [compound 1, chatenaytrienin-1], the CC50 in assay [1] came out at 90 ± 20 nM; in assay [2], 100 ± 30 nM; in assay [3] it was 150 ± 10 nM; in assay [4], 90 ± 20 nM. In assay [5] (6 h and 12 h), the “expression of caspase-8” value is on record as “did not significantly affect”. Moreover, the “levels of Akt, p38, and CREB” value in assay [5] (compound at CC50, 4 h) is “most pronouncedly suppressed”. The “levels of all types of kinase proteins (CREB, JNK, NFkB, p38, ERK1/2, Akt, p70S6K, STAT3, STAT5)” value in assay [5] (compound at CC50, 4 h, MFI versus intact cells) is on record as “most pronouncedly reduced”. Besides, the “cleaved caspase-9” value in assay [5] (especially after 12 h, level exceeded control) was “promoted the accumulation”. In addition, the “level of BAD protein” value in assay [5] (first 6 h, within 12 h began to increase again, not reaching control) is on record as “decreased”. Also, the “cells with cytochrome c released into the cytoplasm (Negative gate)” value in assay [6] is 61.67%. Further, the “cells demonstrating oxidative stress along with the marker of early apoptosis, annexin” value in assay [7] (MitoSOX Red and annexin V) is 10.53%. Further, the “cells in early apoptosis” value in assay [7] (annexin V) stood at 75%.
